Assay results as given in publication PMC8154124, “Design, Synthesis, Anticancer Evaluation, Enzymatic Assays, and a Molecular Modeling Study of Novel Pyrazole–Indole Hybrids” (ACS Omega, 2021).

How the values were obtained:
[1] = tested on: human colorectal carcinoma (HCT-116); test: MTT cytotoxicity assay, HCT-116; type: cell-based; conditions: 48 h, mean ± SD
Protocol: (§1) The cells of human liver carcinoma (HepG2), human breast adenocarcinoma (MCF-7), human colorectal carcinoma (HCT-116), and human lung carcinoma (A549) were purchased from the American Type Culture Collection (Rockville, MD). All cells were maintained in a Dulbecco’s modified Eagle’s medium (DMEM), which was supplemented with 10% of heat-inactivated fetal bovine serum (FBS) and 100 U/mL penicillin and streptomycin each. The cells were grown at 37 °C in a humidified atmosphere of 5% CO2.
(§2) The cytotoxicity activities on the human liver carcinoma (HepG2), human breast adenocarcinoma (MCF-7), human colorectal carcinoma (HCT-116), and human lung carcinoma (A549) cell lines were estimated employing the 3-(4,5-dimethyl-2-thiazolyl)-2,5-diphenyl-2H-tetrazolium bromide (MTT) assay, which was grounded on the reduction of the tetrazolium salt by mitochondrial dehydrogenases in viable cells.[51],[52] The cells were dispensed in a 96-well sterile microplate (3 × 10^4 cells/well), followed by their incubation at 37 °C with a series of different concentrations of 10 μL of each compound or doxorubicin (positive control, in DMSO) for 48 h in a serum-free medium prior to the MTT assay. Subsequently, the media were carefully removed, and 40 μL of MTT (2.5 mg/mL) was added to each well and then incubated for an additional 4 h. Purple formazan dye crystals were solubilized by the addition of 200 μL of DMSO. The absorbance was measured at 570 nm using a SpectraMax Paradigm Multi-Mode microplate reader. The relative cell viability was expressed as the mean percentage of viable cells relative to the untreated control cells. All experiments were conducted in triplicate and were repeated on three different days. All of the values were represented as mean ± standard deviation (SD). The IC50s were determined by the SPSS probit analysis software program (SPSS Inc., Chicago, IL).

[2] = tested on: human breast adenocarcinoma (MCF-7); test: MTT cytotoxicity assay, MCF-7; type: cell-based; conditions: MCF7, 48 h, mean ± SD
Protocol: as §1, §2

[3] = tested on: human liver carcinoma (HepG2); test: MTT cytotoxicity assay, HepG2; type: cell-based; conditions: 48 h, mean ± SD
Protocol: as §1, §2

[4] = tested on: human lung carcinoma (A549); test: MTT cytotoxicity assay, A549; type: cell-based; conditions: 48 h, mean ± SD
Protocol: as §1, §2

HepG2 cancer cells [5] = test: Annexin V/PI apoptosis detection by flow cytometry; type: cell-based, human; conditions: negative control DMSO 1.49%
Protocol: The induction of apoptosis has been investigated using the annexin V/propidium iodide (PI) staining assay for both compounds 7a and 7b on HepG2.
(§3) Cell cycle analysis and apoptosis detection were carried out using flow cytometry.[62] Both HepG2 and MCF-7 cells were seeded at 8 × 10^4 and incubated at 37 °C and 5% CO2 overnight. After treatment with the tested compounds for 24 h, cell pellets were collected and centrifuged (300g, 5 min). For cell cycle analysis, the cell pellets were fixed with 70% ethanol on ice for 15 min and collected again. The collected pellets were incubated with propidium iodide (PI) staining solution (50 μg/mL PI, 0.1 mg/mL RNaseA, 0.05% Triton X-100) at room temperature for 1 h and analyzed using a Gallios flow cytometer (Beckman Coulter, Brea, CA). Apoptosis detection was performed using a FITC annexin V/PI commercial kit (Becton Dickenson, Franklin Lakes, NJ) following the manufacturer’s protocol. The samples were analyzed using fluorescence-activated cell sorting (FACS) with a Gallios flow cytometer (Beckman Coulter, Brea, CA) within 1 h after staining. Data were analyzed using Kaluza v1.2 (Beckman Coulter).

HepG2 cancer cells [6] = test: Cell cycle analysis by flow cytometry (PI staining); type: cell-based, human; conditions: for accumulation of cells at the Pre G1 phase, fold compared to the control / increase in S phase, fold compared to the reference control / reduction in the percentage of cells at the G2/M phase, fold: HepG2, 7a and 7b at 7.9 and 6.1 μM respectively, 24 h; for %preG / %DIP G2/M / %DIP G1 / %DIP S: HepG2, Figure 3; for %preG: negative control 1.49%; for %DIP G2/M: negative control 9.7%; for %DIP G1: negative control 43.72%; for %DIP S: negative control 46.58%
Protocol: To elucidate whether the cytotoxic activity is due to suppression of cell cycle progression, HepG2 cells were exposed to compounds 7a and 7b at concentrations of 7.9 and 6.1 μM, respectively, for 24 h and analyzed using flow cytometry. […] These compounds also provided a slight increase in S phases by 0.1- and 0.14-fold, respectively, compared to the reference control, as shown in Figure 3.
as §3

caspase-3 = test: Caspase-3 (active) ELISA in treated HepG2 cells; type: cell-based, human; conditions: for caspase-3 activation, fold higher than the negative control: HepG2, 7a and 7b at 7.9 and 6.1 μM respectively, 24 h; for caspase-3: HepG2 cells treated 24 h, cont. HepG2 67.3 ± 2.8
Protocol: It has been reported that caspases cascade through either intrinsic or extrinsic pathways that mediate the induction of apoptosis, which may lead to apoptotic cell death.[53]−[55] Caspase-3 is involved in cell shrinkage, chromatin condensation, and DNA fragmentation inside the cells, causing apoptosis induction.
Activities of caspase-3 were measured using the Invitrogen caspase-3 (Active) (human) ELISA kit, Catalog # KHO1091 (96 tests) (Invitrogen Corporation) according to the manufacturer’s instructions.

Bcl-2 = Bcl-2 ELISA in treated HepG2 cells; type: cell-based, human; conditions: for Bcl-2 level relative to control, fold: HepG2, versus control; for Bcl-2: HepG2 cells treated, cont. HepG2 6.222 ± 0.14
Protocol: Furthermore, it is well known that the antiapoptotic Bcl-2 protein plays a critical role in cancer resistance therapy.[56] Therefore, we have studied the effect of both compounds 7a and 7b on Bcl-2 protein expression levels. They provided a 0.5- and 0.4-fold decrease in the Bcl-2 concentration, respectively.
Activities of Bcl-2 were measured using the Invitrogen Zymed Bcl-2 ELISA Kit, Catalog # 99–0042 (96 tests) (Invitrogen Corporation) according to the manufacturer’s instructions.

Bax = Bax ELISA in treated HepG2 cells; type: cell-based, human; conditions: cont. HepG2 5.762 ± 1.18
Protocol: In addition, the pro-apoptotic protein (Bax) is a protein that accelerates apoptosis by binding to and antagonizing the death repressor activity of Bcl-2.[57] Following any apoptotic stimuli, Bax causes activation of caspase-3 and perpetuates the apoptotic cascade.[58] The Bax protein expression level is altered in various human malignancies.[59],[60] Therefore, the effect of both compounds 7a and 7b on the Bax expression level has been studied.
Activities of Bax were measured using the Human Bax ELISA kit (DRG Human Bax ELISA (EIA-4487) DRG International, Inc.) according to the manufacturer’s instructions.

CDK-2 enzyme = CDK-2 enzyme (Homo sapiens, UniProt P24941); test: In vitro CDK-2 enzyme inhibitory assessment (ELISA); type: biochemical
Protocol: Estimation of CDK-2 was performed using ELISA through an affinity tag labeled capture antibody and a reporter conjugated detector antibody, which immunocapture the sample analyte in solution. The addition of the standard and samples to the wells is carried out, followed by the addition of the antibody mix. After the incubation period is completed, the wells are washed, and the unrestrained substance is discarded. Then, TMB (3,3′,5,5′-tetramethylbenzidine) substrate is added, and prompted by horseradish peroxidase (HRP), blue coloration appeared. The reaction was stopped by the addition of a stop solution, completely changing the color from blue to yellow. Signals were created equivalently to the quantity of the bound analyte, and the intensity was recorded at a certain wavelength (450 nm) using a Robonik P2000 ELISA reader. The concentrations of the tested compounds were calculated from the plotted curve.

Structure (SMILES) | IC50 [1] [µM] | IC50 [2] [µM] | IC50 [3] [µM] | IC50 [4] [µM] | total necrosis and apoptosis (early and late) percentage (HepG2 cancer cells [5]) [%] | accumulation of cells at the Pre G1 phase, fold compared to the control (HepG2 cancer cells [6]) [fold] | increase in S phase, fold compared to the reference control (HepG2 cancer cells [6]) [fold] | reduction in the percentage of cells at the G2/M phase, fold (HepG2 cancer cells [6]) [fold] | %preG (HepG2 cancer cells [6]) [%] | %DIP G2/M (HepG2 cancer cells [6]) [%] | %DIP G1 (HepG2 cancer cells [6]) [%] | %DIP S (HepG2 cancer cells [6]) [%] | caspase-3 activation, fold higher than the negative control (caspase-3) [fold] | caspase-3 (caspase-3) [pg/mL] | Bcl-2 level relative to control, fold (Bcl-2) [fold] | Bcl-2 (Bcl-2) [ng/mL] | Bax (Bax) [pg/mL] | IC50 (CDK-2 enzyme) [µM]
O=C(Nc1ccccc1)c1c(Nc2ccccc2)n[nH]c1N=Cc1c[nH]c2ccccc12 [7a, 5-((1H-Indol-3-yl)methyleneamino)-N-phenyl-3-(phenylamino)-1H-pyrazole-4-carboxamide] | 17.4 ± 3.2 | 10.6 ± 2.3 | 6.1 ± 1.9 | 23.7 ± 3.1 | 22.18 | 14.9 | 0.1 | 2.4 | 22.18 | 4.11 | 44.61 | 51.28 | 7 | 388.7 ± 7 | 0.5 | 3.123 ± 0.1 | 211.3 ± 5.9 | 0.074 ± 0.15
Cc1ccc(NC(=O)c2c(Nc3ccccc3)n[nH]c2N=Cc2c[nH]c3ccccc23)cc1 [7b, 5-((1H-Indol-3-yl)methyleneamino)-3-(phenylamino)-N-(4-methylphenyl)-1H-pyrazole-4-carboxamide] | 19.6 ± 3.5 | 14.5 ± 2.5 | 7.9 ± 1.9 | 14.1 ± 2.1 | 27.51 | 18.5 | 0.14 | 29.4 | 27.51 | 0.33 | 46.39 | 53.28 | 5.8 | 469.8 ± 10 | 0.4 | 2.479 ± 0.07 | 272.6 ± 11.5 | 0.095 ± 0.1
